Among the test systems are SW-620 colon; MALME-3M melanoma; MCF7 breast; PC-3 prostate; A549 NSCLC; SNB-75 CNS; HS 578T breast; RXF 393 renal; OVCAR-5 ovarian; 786-0 renal.
Experiment in all cases: NCI tumour cell line growth inhibition, 48 h

Here are results for eight compounds from PubChem BioAssay (NCI).

Molecules are shown by their SMILES.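 The compound was tested at five concentrations on cells cultured in 96-well plates, with a 48-hour exposure period. GI50 marks 50% less growth. The concentration for full growth arrest is given as TGI.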 Bounds are passed on as bounds.

Take `Cc1ccc(C2=NOC3=c4ccccc4=CSC3=C2c2ccc([N+](=O)[O-])cc2)cc1`: the GI50 is 62.3 µM in the assay on SW-620 colon; 17.7 µM in the assay with MALME-3M melanoma; 11.1 µM in the assay with MCF7 breast; 14.3 µM in the assay on PC-3 prostate; 24.5 µM in the assay with A549 NSCLC; 24.5 µM in the assay with SNB-75 CNS. Besides, the GI50 was 22.9 µM in the assay with HS 578T breast, 18.7 µM in the assay on RXF 393 renal, 25.2 µM in the assay on OVCAR-5 ovarian and 0.58 µM in the assay with 786-0 renal. The TGI with SW-620 colon was > 100 µM; with MALME-3M melanoma, 89.5 µM; in the assay with MCF7 breast, 88.8 µM; in the assay with PC-3 prostate, 65.3 µM; in the assay on A549 NSCLC, > 100 µM; with SNB-75 CNS, 81.4 µM. Further, the TGI in the assay on HS 578T breast is 94.9 µM; in the assay with RXF 393 renal it was 64.6 µM; in the assay on OVCAR-5 ovarian, > 100 µM; in the assay on 786-0 renal, 72.5 µM.
As to `O=C1C=C(Br)c2c(-c3ccccc3)oc3cccc1c23`, the TGI is > 100 µM in the assay on SW-620 colon; > 100 µM in the assay with MALME-3M melanoma; > 100 µM in the assay on MCF7 breast; > 100 µM with PC-3 prostate; > 100 µM with A549 NSCLC; 42.5 µM in the assay with SNB-75 CNS. In addition, the TGI in the assay with HS 578T breast is > 100 µM; with RXF 393 renal it was > 83.9 µM; with OVCAR-5 ovarian, > 100 µM; in the assay with 786-0 renal it was > 100 µM.
For `N/C(=N\N=C\c1ccc(-c2ccccc2)cc1)N[N+](=O)[O-]`, the GI50 in the assay with SW-620 colon is 0.796 µM; with MALME-3M melanoma it was > 100 µM; in the assay on MCF7 breast it was 1.47 µM; in the assay with PC-3 prostate, 3.81 µM; with A549 NSCLC it was 2.75 µM; in the assay with SNB-75 CNS, 1.06 µM. Besides, the GI50 in the assay on HS 578T breast is 1.43 µM; in the assay with RXF 393 renal it was 2.78 µM; in the assay with OVCAR-5 ovarian, > 100 µM; with 786-0 renal it was 10.4 µM. Besides, the TGI with SW-620 colon was > 100 µM; in the assay on MALME-3M melanoma it was > 100 µM; in the assay with MCF7 breast, > 100 µM; in the assay with PC-3 prostate it was > 100 µM; in the assay on A549 NSCLC it was > 100 µM; in the assay on SNB-75 CNS it was 6.62 µM. Besides, the TGI with HS 578T breast was > 61.3 µM; with RXF 393 renal it was 80.2 µM; in the assay on OVCAR-5 ovarian it was > 100 µM; in the assay on 786-0 renal, > 100 µM.
In the case of `C[C@]12CC[C@H]3[C@@H](CCC4=CC(=O)CC[C@@H]43)[C@@H]1CC[C@@H]2OC(=O)CCc1ccccc1`, the GI50 with SW-620 colon was 20.3 µM; in the assay with MALME-3M melanoma it was 17 µM; with MCF7 breast, 15.3 µM; in the assay on PC-3 prostate it was 24.4 µM; with A549 NSCLC it was 25.1 µM; in the assay on SNB-75 CNS, 29 µM. For the same compound, the GI50 is 4 µM in the assay on HS 578T breast, 19.6 µM with RXF 393 renal, 42.8 µM in the assay with OVCAR-5 ovarian and 23.9 µM with 786-0 renal. In addition, the TGI was 47.2 µM in the assay on SW-620 colon; 34.4 µM with MALME-3M melanoma; 31.1 µM with MCF7 breast; > 84.2 µM in the assay with PC-3 prostate; > 73.7 µM in the assay on A549 NSCLC; > 100 µM in the assay with SNB-75 CNS. The TGI with HS 578T breast is 21.8 µM; with RXF 393 renal, 43.5 µM; with OVCAR-5 ovarian, > 81.5 µM; in the assay on 786-0 renal, 50.8 µM.
As for `O[C@H]1CO[C@H]2[C@@H]1OC[C@@H]2Oc1ccc(Nc2ccnc(Nc3ccc(O[C@H]4CO[C@H]5[C@@H]4OC[C@@H]5O)c(Cl)c3)n2)cc1Cl`, the GI50 is 2.36 µM in the assay with SW-620 colon; 1.09 µM in the assay on MALME-3M melanoma; 1.73 µM with MCF7 breast; 2.26 µM with PC-3 prostate; 2.84 µM in the assay with A549 NSCLC; 1.27 µM in the assay with SNB-75 CNS. Further, the GI50 is 1.29 µM with HS 578T breast, 1.5 µM with RXF 393 renal, 2.47 µM in the assay with OVCAR-5 ovarian and 2.98 µM in the assay with 786-0 renal. Also, the TGI in the assay on SW-620 colon worked out at 6.86 µM; with MALME-3M melanoma it was 3.09 µM; in the assay with MCF7 breast, 5.44 µM; in the assay with PC-3 prostate, 11.2 µM; in the assay on A549 NSCLC, 11.5 µM; with SNB-75 CNS it was 4.77 µM. Further, the TGI was determined as 4.8 µM in the assay with HS 578T breast, 3.8 µM in the assay with RXF 393 renal, 8.03 µM with OVCAR-5 ovarian and 15.1 µM in the assay on 786-0 renal.
Consider `CN(C)c1ccc(/C=C\c2cccc[n+]2C)cc1`, for which the GI50 in the assay on SW-620 colon was 3.57 µM; with MALME-3M melanoma, 15.6 µM; with MCF7 breast, 4.52 µM; in the assay on PC-3 prostate it was 3.04 µM; in the assay on A549 NSCLC, 1.73 µM; in the assay on SNB-75 CNS, 6.26 µM. The GI50 in the assay on HS 578T breast was 16.2 µM; in the assay with RXF 393 renal it was 18.2 µM; in the assay on OVCAR-5 ovarian, 19.2 µM; with 786-0 renal it was 16.3 µM. Moreover, the TGI is > 100 µM with SW-620 colon; > 100 µM in the assay with MALME-3M melanoma; > 100 µM in the assay on MCF7 breast; > 100 µM in the assay with PC-3 prostate; > 100 µM in the assay on A549 NSCLC; 49.5 µM in the assay on SNB-75 CNS. Besides, the TGI with HS 578T breast, with RXF 393 renal, in the assay on OVCAR-5 ovarian and in the assay on 786-0 renal was > 100 µM each time.
Regarding `C/C(=N\Nc1ccc2ccccc2n1)c1ccccn1`, the TGI stood at 5.67 µM with SW-620 colon; 2.15 µM in the assay on MALME-3M melanoma; 5.21 µM in the assay with MCF7 breast; 7.23 µM in the assay on PC-3 prostate; 11.1 µM in the assay with A549 NSCLC; 17.6 µM with SNB-75 CNS. The TGI is 30.5 µM with HS 578T breast, 5.86 µM in the assay with RXF 393 renal, 14.5 µM with OVCAR-5 ovarian and 1.69 µM in the assay on 786-0 renal. For the same compound, the GI50 in the assay with MALME-3M melanoma is 0.0756 µM; in the assay with MCF7 breast, 0.102 µM; with A549 NSCLC, 0.0841 µM; in the assay on SNB-75 CNS it was 0.123 µM; in the assay on HS 578T breast, 1.94 µM; with RXF 393 renal, 0.229 µM. The values for the GI50 in the assay on OVCAR-5 ovarian and in the assay on 786-0 renal were 0.0832 µM and 0.1 µM, respectively.
Turning to `COc1cccc(C=Nc2cc(C)ccn2)c1O.COc1cccc(C=Nc2cc(C)ccn2)c1O.[Cu]`, the GI50 is 18.3 µM in the assay with SW-620 colon; 16.6 µM in the assay on MALME-3M melanoma; 19.7 µM in the assay with MCF7 breast; 17.8 µM with PC-3 prostate; 27.8 µM with A549 NSCLC; 18.8 µM with SNB-75 CNS. The GI50 with HS 578T breast is 19 µM; with RXF 393 renal it was 11.9 µM; in the assay with OVCAR-5 ovarian, 20.2 µM; in the assay with 786-0 renal, 14.3 µM. Also, the TGI worked out at 51.9 µM in the assay with SW-620 colon; 31.7 µM in the assay with MALME-3M melanoma; 62.8 µM with MCF7 breast; 42.9 µM in the assay on PC-3 prostate; 90.1 µM in the assay on A549 NSCLC; 44.9 µM in the assay on SNB-75 CNS. Further, the TGI in the assay on HS 578T breast was found to be 67.6 µM; in the assay with RXF 393 renal, 34.8 µM; in the assay with OVCAR-5 ovarian it was 44.7 µM; in the assay on 786-0 renal, 45.2 µM.
